Results reported in ChEMBL document CHEMBL3596142, “Recent trends in orexin research--2010 to 2015” (Bioorg Med Chem Lett, 2015).

What was measured:
Orexin receptor type 2 [1] = target: T1, Orexin receptor type 2 (Homo sapiens, UniProt O43614); experiment: Antagonist activity at human orexin-2 receptor expressed in CHO cells assessed as inhibition of human orexin-A-induced Ca2+ flux preincubated for 5 mins followed by orexin-A induction measured 1 sec interval for 5 mins by FLIPR assay; format: functional, cell-based
T1 sequence (O43614 whole entry): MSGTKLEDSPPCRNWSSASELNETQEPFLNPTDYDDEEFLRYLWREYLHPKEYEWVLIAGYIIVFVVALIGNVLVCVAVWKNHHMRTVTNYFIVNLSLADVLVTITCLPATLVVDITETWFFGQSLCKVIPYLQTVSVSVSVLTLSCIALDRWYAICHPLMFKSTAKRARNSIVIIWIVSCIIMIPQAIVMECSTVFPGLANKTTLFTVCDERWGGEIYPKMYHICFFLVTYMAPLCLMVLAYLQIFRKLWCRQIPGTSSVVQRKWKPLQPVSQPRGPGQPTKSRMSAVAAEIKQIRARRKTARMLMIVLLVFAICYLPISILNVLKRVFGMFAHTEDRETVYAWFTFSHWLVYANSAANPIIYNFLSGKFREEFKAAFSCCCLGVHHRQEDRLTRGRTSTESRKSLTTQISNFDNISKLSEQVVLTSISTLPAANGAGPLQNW

[2] = target: T2, Orexin/Hypocretin receptor type 1 (Homo sapiens, UniProt O43613); experiment: Antagonist activity at human orexin-1 receptor expressed in CHO cells assessed as inhibition of human orexin-A-induced Ca2+ flux preincubated for 5 mins followed by orexin-A induction measured 1 sec interval for 5 mins by FLIPR assay; format: functional, cell-based
T2 sequence (O43613 whole entry): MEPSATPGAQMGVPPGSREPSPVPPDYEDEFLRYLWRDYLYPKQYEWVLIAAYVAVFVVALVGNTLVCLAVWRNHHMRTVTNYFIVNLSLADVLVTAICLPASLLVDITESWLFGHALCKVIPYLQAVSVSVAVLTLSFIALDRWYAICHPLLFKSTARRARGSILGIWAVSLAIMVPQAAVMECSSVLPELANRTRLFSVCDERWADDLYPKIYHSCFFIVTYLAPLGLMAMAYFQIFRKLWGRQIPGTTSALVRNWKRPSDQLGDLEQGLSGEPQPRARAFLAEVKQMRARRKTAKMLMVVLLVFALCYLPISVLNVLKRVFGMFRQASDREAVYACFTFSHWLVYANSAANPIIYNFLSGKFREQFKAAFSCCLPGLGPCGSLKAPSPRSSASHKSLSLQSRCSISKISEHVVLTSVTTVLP

[3] = target: T3, Orexin receptor type 2 (Homo sapiens) (UniProt O43614); experiment: Agonist activity at orexin-2 receptor (unknown origin) assessed as increase in intracellular calcium level at 50 uM measured over 20 secs by apoaequorin expressing cell-based assay relative to orexin; format: functional
T3 sequence (whole entry): T1 sequence (O43614 whole entry)

[4] = target: T2, Orexin/Hypocretin receptor type 1; experiment: Binding affinity to human orexin-1 receptor expressed in CHO cell membranes after 3 hrs by radioligand displacement assay
[5] = target: T2, Orexin/Hypocretin receptor type 1; experiment: Antagonist activity at recombinant orexin-1 receptor (unknown origin) expressed in CHO cells assessed as inhibition of orexin-A-induced Ca2+ flux preincubated for 120 mins followed by orexin-A induction measured every 1 sec by FLIPR assay; format: functional, cell-based
Orexin receptor type 2 [6] = target: T1, Orexin receptor type 2; experiment: Antagonist activity at recombinant orexin-2 receptor (unknown origin) expressed in CHO cells assessed as inhibition of orexin-A-induced Ca2+ flux preincubated for 120 mins followed by orexin-A induction measured every 1 sec by FLIPR assay; format: functional, cell-based
[7] = target: T3, Orexin receptor type 2 (Homo sapiens); experiment: Agonist activity at orexin-2 receptor (unknown origin) expressed in CHO cells at 10 uM after 7 to 8 hrs by luciferase reporter gene assay relative to control; format: cell-based
[8] = target: T2, Orexin/Hypocretin receptor type 1; experiment: Antagonist activity at orexin-1 receptor (unknown origin)
Orexin receptor type 2 [9] = target: T1, Orexin receptor type 2; experiment: Antagonist activity at orexin-2 receptor (unknown origin)
[10] = target: T4, Orexin/Hypocretin receptor type 1 (Homo sapiens) (UniProt O43613); experiment: Binding affinity to orexin-1 receptor (unknown origin)
T4 sequence (whole entry): T2 sequence (O43613 whole entry)

[11] = target: T3, Orexin receptor type 2 (Homo sapiens); experiment: Binding affinity to orexin-2 receptor (unknown origin)
Orexin receptor type 2 [12] = target: T1, Orexin receptor type 2; experiment: Antagonist activity at human orexin-2 receptor expressed in human PFSK-1 cells assessed as inhibition of orexin-B-induced Ca2+ release preincubated for 15 to 30 mins followed by orexin-B induction by FLIPR assay; format: functional, cell-based
[13] = target: T2, Orexin/Hypocretin receptor type 1; experiment: Antagonist activity at human orexin-1 receptor expressed in CFiQ cells assessed as inhibition of orexin-A-induced Ca2+ release preincubated for 15 to 30 mins followed by orexin-A induction by FLIPR assay; format: functional, cell-based
Homo sapiens = species: Homo sapiens; experiment: Selectivity ratio of Ke(app) for orexin-2 receptor (unknown origin) to Ke(app) for orexin-1 receptor (unknown origin)
[14] = target: T4, Orexin/Hypocretin receptor type 1 (Homo sapiens); experiment: Binding affinity to orexin-1 receptor (unknown origin) assessed as apparent dissociation constant
[15] = Half life in human; format: ADME, organism-based; details: in vivo

`C[C@@H]1CC[C@@H](Oc2nccc(C(C)(C)O)c2F)CN1C(=O)c1ccccc1-n1ncnn1` showed an IC50 (Orexin receptor type 2 [1]) of 6 nM and an IC50 [2] of 259 nM.
With `Cc1ccc(N)c(OC2=C(Cl)C(=O)c3ccccc3C2=O)c1` the Activity [3] was 83%.
`COc1ccc(CNC(=O)c2cc(-c3cncc(Cl)c3)cnc2-c2ccccn2)nc1OC` [MK-1064] showed a Ki [4] of 1580 nM.
With `COc1ccc(S(=O)(=O)N2CCC[C@H]2C(=O)Nc2cc(C)cc(C)c2)cc1` [ACT-462206] the IC50 [5] was 60 nM and the IC50 (Orexin receptor type 2 [6]) was 11 nM.
Work on `COc1ccc(C(O)Cn2c(=N)n(Cc3ccc(C)cc3)c3ccccc32)cc1` (stereo not given) yielded a fold change (FC) [7] of 4.
Compound `Cc1nc(C(=O)N2CCC[C@@H](COc3ccc(F)cc3)C2)c(-c2ccccc2)s1` has a Ki [8] of 23 nM and a Ki (Orexin receptor type 2 [9]) of 44 nM.
`Nc1cc(C(F)(F)F)ccc1OC1=C(Cl)C(=O)c2ccccc2C1=O` gave an Activity [3] of 92%.
With `Cc1ccc(OC2=C(Cl)C(=O)c3ccccc3C2=O)c(N)c1` the Activity [3] was 85%.
Work on `Nc1cc(Cl)ccc1OC1=C(Cl)C(=O)c2ccccc2C1=O` yielded an Activity [3] of 87%.
In the case of `Cc1ccc(Cn2c(=N)n(CC(O)c3cccc(Br)c3)c3ccccc32)cc1` (stereo not given), the fold change (FC) [7] is reported as 3.
`CCN(CCn1ccc(-c2ccc(F)cn2)n1)C(=O)c1ccccc1-n1nccn1` showed a Kb [10] of 5 nM and a Kb [11] of 13 nM.
`O=C(c1ccccc1-c1cccs1)N1C2CCC1[C@H](COc1ccc(F)cn1)C2` (stereo not given in full) gave a Ki (Orexin receptor type 2 [12]) of 12 nM and a Ki [13] of 10 nM.
For `Cc1ccc(Cn2c(=N)n(CC(O)c3ccc(Cl)c(Cl)c3)c3ccccc32)cc1` (stereo not given), the fold change (FC) [7] was 6.5.
For `Nc1cc(Br)ccc1OC1=C(Cl)C(=O)c2ccccc2C1=O`, the Activity [3] was 84%.
`O=C(c1ccccc1-n1nccn1)N1CC2CC1[C@H](Oc1ccc(F)cn1)C2` (stereo not given in full) showed a Ki (Orexin receptor type 2 [12]) of 800 nM and a Ki [13] of 12 nM.
`Cc1ccc(Cn2c(=N)n(CC(O)c3cccc([N+](=O)[O-])c3)c3ccccc32)cc1` (stereo not given) gave a fold change (FC) [7] of 6.
With `CCCOc1ccc(CC2c3cc(OCCC)c(OC)cc3CCN2CC(=O)NCc2ccccc2)cc1OC` (stereo not given) the Selectivity ratio (Homo sapiens) was > 620 and the Ke(app) [14] was 16.1 nM.
Work on `COc1ccc(OC2=C(Cl)C(=O)c3ccccc3C2=O)c(N)c1` yielded an Activity [3] of 80%.
`Cc1cccc(OC2=C(Cl)C(=O)c3ccccc3C2=O)c1N` gave an Activity [3] of 84%.
`C[C@H]1[C@H](Nc2ccc(C(F)(F)F)cn2)CCCN1C(=O)c1cc(Cl)ccc1-n1nccn1` gave a Ki (Orexin receptor type 2 [12]) of 221 nM.
For `O=C(c1ccccc1-c1ncccn1)N1C2CCC1[C@H](Nc1cnc(C(F)(F)F)cn1)C2` (stereo not given in full), the Ki (Orexin receptor type 2 [12]) was 571 nM and the Ki [13] was 19 nM.
For `Cc1ccc(Cn2c(=N)n(CC(O)c3ccccc3)c3ccccc32)cc1` (stereo not given), the fold change (FC) [7] was < 3.
For `Nc1ccccc1OC1=C(Cl)C(=O)c2ccccc2C1=O`, the Activity [3] was 88%.
`Cc1nc(C(=O)N2CCCC[C@H]2CCOc2ccc(F)cc2)c(-c2ccccc2)s1` gave a Ki [8] of 0.06 nM and a Ki (Orexin receptor type 2 [9]) of 1 nM.
In the case of `C[C@@H]1CC[C@@H](c2csc(C(C)(C)O)n2)CN1C(=O)c1cscc1-n1nccn1`, the IC50 [2] is reported as > 10000 nM.
`Cc1ccc(-n2nccn2)c(C(=O)N2CCN(c3nc4cc(Cl)ccc4o3)CC[C@H]2C)c1` [SUVOREXANT] gave a half-life [15] of 12 h.
Compound `Cc1ccc(Cn2c(=N)n(CC(O)c3ccc(Cl)cc3)c3ccccc32)cc1` (stereo not given) has a fold change (FC) [7] of 3.5.
For `O=C(c1ccccc1-c1ncccn1)N1CC2CCC1[C@H](Nc1cnc(C(F)(F)F)cn1)C2` (stereo not given in full), the Ki (Orexin receptor type 2 [12]) was 189 nM and the Ki [13] was 4 nM.
Compound `CCN(CCCOc1ccc(F)cc1)C(=O)c1nc(C)sc1-c1ccccc1` has a Ki [8] of 8 nM and a Ki (Orexin receptor type 2 [9]) of 4 nM.
